ChEMBL document CHEMBL1201862, “PubChem BioAssay data set” (2004)
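Grown in 96-well plates, cells were treated for 48 hours with each compound at five concentrations. Insufficient inhibition: endpoint recorded as highest concentration tested. Abbreviation: GI50, concentration required for 50% inhibition of growth.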 Activity calls are given as the source filed them. Cut-off read from the data, not from the text of the source: active = GI50 up to about 1.1 µM and inactive = higher.

Assays:
Assay in all cases: NCI tumour cell line growth inhibition, 48 h
HCT-15 = tested on: HCT-15
MDA-MB-231 = tested on: MDA-MB-231
SNB-75 = tested on: SNB-75
Hs-578T = tested on: Hs-578T
MDA-N = tested on: MDA-N
NCI-H460 = tested on: NCI-H460
RPMI-8226 = tested on: RPMI-8226
CAKI-1 = tested on: CAKI-1
ACHN = tested on: ACHN
U-251 = tested on: U-251
A498 = tested on: A498
LOX IMVI = tested on: LOX IMVI
SK-MEL-5 = tested on: SK-MEL-5
786-0 = tested on: 786-0
T47D = tested on: T47D
SR = tested on: SR
NCI/ADR-RES = tested on: NCI/ADR-RES
Malme-3M = tested on: Malme-3M
HL-60 = tested on: HL-60
NCI-H226 = tested on: NCI-H226

SMILES	GI50 (HCT-15) [µM]	GI50 (MDA-MB-231)	GI50 (SNB-75)	GI50 (Hs-578T)	GI50 (MDA-N)	GI50 (NCI-H460)	GI50 (RPMI-8226)	GI50 (CAKI-1)	GI50 (ACHN)	GI50 (U-251)	GI50 (A498)	GI50 (LOX IMVI)	GI50 (SK-MEL-5)	GI50 (786-0)	GI50 (T47D)	GI50 (SR)	GI50 (NCI/ADR-RES)	GI50 (Malme-3M)	GI50 (HL-60)	GI50 (NCI-H226)
C=CCNC1=C2C[C@@H](C)C[C@@H](OC)[C@H](OC(=O)CCN)[C@H](C)/C=C(\C)[C@@H](OC(N)=O)[C@H](OC)/C=C\C=C(/C)C(=O)NC(=CC1=O)C2=O	9.57	5.19 µM (inactive)	3.18 µM (inactive)	14.5 µM (inactive)	1.21 µM (inactive)	2.77 µM (inactive)	6.08 µM (inactive)	12.2 µM (inactive)	12.6 µM (inactive)	5.09 µM (inactive)	3.61 µM (inactive)	3.03 µM (inactive)	4.12 µM (inactive)	4.38 µM (inactive)	4.89 µM (inactive)	0.938 µM (active)	76.2 µM (inactive)	2.67 µM (inactive)	3.83 µM (inactive)	–
CCc1nn(CN2CCOCC2)c(=S)n1/N=C/c1ccc(-c2ccc(Cl)cc2)o1	> 100	> 100 µM (inactive)	50.8 µM (inactive)	> 100 µM (inactive)	> 100 µM (inactive)	> 100 µM (inactive)	51.5 µM (inactive)	> 100 µM (inactive)	> 100 µM (inactive)	> 100 µM (inactive)	> 100 µM (inactive)	> 100 µM (inactive)	> 100 µM (inactive)	> 100 µM (inactive)	> 100 µM (inactive)	80.5 µM (inactive)	> 100 µM (inactive)	–	81.1 µM (inactive)	> 100 µM (inactive)
N#C/C(C(=S)NCc1ccccc1)=C(/N)N1CCCC1	> 100	> 100 µM (inactive)	–	> 100 µM (inactive)	> 100 µM (inactive)	> 100 µM (inactive)	> 100 µM (inactive)	> 100 µM (inactive)	> 100 µM (inactive)	> 100 µM (inactive)	35.3 µM (inactive)	> 100 µM (inactive)	> 100 µM (inactive)	> 100 µM (inactive)	25.1 µM (inactive)	> 100 µM (inactive)	> 100 µM (inactive)	> 100 µM (inactive)	> 100 µM (inactive)	> 100 µM (inactive)
COc1ccc2c(c1)c1c(n2CCN2CCOCC2)-c2cccc(OC)c2CC1	29.5	27.6 µM (inactive)	–	35 µM (inactive)	33.4 µM (inactive)	38.9 µM (inactive)	16.9 µM (inactive)	> 100 µM (inactive)	37 µM (inactive)	40.1 µM (inactive)	26.6 µM (inactive)	–	41.6 µM (inactive)	30.4 µM (inactive)	59 µM (inactive)	10 µM (inactive)	43.6 µM (inactive)	16.9 µM (inactive)	–	24.4 µM (inactive)
O=C(Nc1ccccc1Cl)c1cc(S(=O)(=O)Nc2n[nH]c(=O)n2-c2ccccc2)c(S)cc1Cl	> 100	> 100 µM (inactive)	–	> 100 µM (inactive)	> 100 µM (inactive)	> 100 µM (inactive)	> 100 µM (inactive)	> 100 µM (inactive)	–	> 100 µM (inactive)	> 100 µM (inactive)	> 100 µM (inactive)	> 100 µM (inactive)	> 100 µM (inactive)	> 100 µM (inactive)	> 100 µM (inactive)	> 100 µM (inactive)	> 100 µM (inactive)	> 100 µM (inactive)	> 100 µM (inactive)
CCCCOC(=O)Nc1ccc(S(=O)(=O)Nc2c(Cl)cccc2Cl)cc1	26.7	25.1 µM (inactive)	–	43 µM (inactive)	27.2 µM (inactive)	31.1 µM (inactive)	17.1 µM (inactive)	25.6 µM (inactive)	30.2 µM (inactive)	36.1 µM (inactive)	11.1 µM (inactive)	30.1 µM (inactive)	14.1 µM (inactive)	31.3 µM (inactive)	25.7 µM (inactive)	21.4 µM (inactive)	24.3 µM (inactive)	26.9 µM (inactive)	22.3 µM (inactive)	–
O=C(Cn1c(C(=O)/C=C/c2ccc(Cl)c(Cl)c2)nc2ccccc21)c1ccccc1	25.2	22.7 µM (inactive)	–	27.3 µM (inactive)	19.9 µM (inactive)	16.2 µM (inactive)	23.8 µM (inactive)	–	28 µM (inactive)	26.8 µM (inactive)	26.1 µM (inactive)	17.9 µM (inactive)	16.9 µM (inactive)	18.8 µM (inactive)	31 µM (inactive)	25 µM (inactive)	21.8 µM (inactive)	35.2 µM (inactive)	15.6 µM (inactive)	31.7 µM (inactive)
COc1cc2c(cc1C)NC(=O)/C2=C/c1c(Cl)n(-c2ccccc2)c2ccccc12	11.8	8.69 µM (inactive)	65 µM (inactive)	20 µM (inactive)	15.1 µM (inactive)	9.59 µM (inactive)	7.28 µM (inactive)	21 µM (inactive)	12.7 µM (inactive)	16.1 µM (inactive)	32.8 µM (inactive)	7.33 µM (inactive)	10.5 µM (inactive)	15.3 µM (inactive)	4.54 µM (inactive)	6.12 µM (inactive)	16.8 µM (inactive)	18.4 µM (inactive)	3.38 µM (inactive)	–
